# Measurements published in BindingDB's records for doi:10.1021/jm001111b (Louis Pasteur University, 2001).
# Assay: Displacement of [3H]clonidine from imidazoline receptor I-1 of bovine chromaffin cell membranes
row,Ki,SMILES
1,170 nM,CCC1CCC(NC(C2CC2)C2CC2)=N1 (stereo unspecified)
2,646 nM,CC1CN=C(NC(C2CC2)C2CC2)C1 (stereo unspecified)
3,537 nM,CC1CC(NC(C2CC2)C2CC2)=NC1C (stereo unspecified)
4,513 nM,C1CN=C(NC(C2CC2)C2CC2)C1
5,1580 nM,CC1CCC(NC(C2CC2)C2CC2)=N1 (stereo unspecified)
6,74 nM,C1COC(NC(C2CC2)C2CC2)=N1 [CHEBI:8862]
